One compound from patent US8883410B2, “Method for determining the stability of organic methyleneamines in the presence of semicarbazide-sensitive amine oxidase” (Sanofi, priority 2007, dated 2014) can be followed below.

For this data set, the target named is T1, human SSAO T1 (Gly27-Asn763), untagged (Homo sapiens, UniProt Q16853).
T1 construct: T1 (Gly27-Asn763) Representing the Enzyme Lacking the Membrane Anchoring Region; additional N-terminal Met (N); expressed in transfected cells; cell lysate
T1 sequence (Q16853 27-763): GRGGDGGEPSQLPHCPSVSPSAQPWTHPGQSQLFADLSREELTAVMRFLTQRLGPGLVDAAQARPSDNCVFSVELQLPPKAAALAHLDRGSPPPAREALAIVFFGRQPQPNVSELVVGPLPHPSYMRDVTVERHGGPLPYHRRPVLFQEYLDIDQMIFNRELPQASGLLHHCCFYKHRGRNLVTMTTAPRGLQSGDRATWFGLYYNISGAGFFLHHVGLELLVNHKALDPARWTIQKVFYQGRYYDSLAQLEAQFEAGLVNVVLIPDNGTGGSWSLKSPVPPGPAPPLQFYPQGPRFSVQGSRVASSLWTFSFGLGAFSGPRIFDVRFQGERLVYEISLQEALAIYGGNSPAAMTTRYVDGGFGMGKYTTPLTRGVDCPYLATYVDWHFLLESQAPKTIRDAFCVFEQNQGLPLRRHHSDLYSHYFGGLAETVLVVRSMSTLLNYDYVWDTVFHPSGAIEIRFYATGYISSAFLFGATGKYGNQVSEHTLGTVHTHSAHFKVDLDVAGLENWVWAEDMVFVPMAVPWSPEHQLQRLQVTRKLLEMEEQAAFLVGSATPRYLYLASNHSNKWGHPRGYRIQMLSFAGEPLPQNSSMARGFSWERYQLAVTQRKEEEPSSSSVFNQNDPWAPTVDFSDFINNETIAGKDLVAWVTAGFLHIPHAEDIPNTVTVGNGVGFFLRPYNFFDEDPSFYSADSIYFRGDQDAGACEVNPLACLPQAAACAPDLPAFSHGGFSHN
As to the kind of experiment: Benzylamine stability in lysate of cells expressing T1 SSAO (untagged), LC/MS/MS. It counts as in vitro ADME. How it is done: 3) T1 (Gly27-Asn763) Representing the Enzyme Lacking the Membrane Anchoring Region:
The expression constructs were prepared by cloning these PCR products into the pCDNA5-FRT-To-DEST vector (Invitrogen, Gateway System™). The forward and reverse DNA sequence of each construct was confirmed including expressed sequences and at least 100 base pairs either side of this. Stable cell lines for Flp-In CHO, Flp-In CHO T-Rex, and Flp-In HEK 293 (Invitrogen, Flp-In system™) were generated using these 6 constructs according to manufacturer's instructions. Cells were co-transfected with the regulatory vector, pOG44, and each of the pCDNA5-FRT-To-DEST constructs using Lipfectamine (Invitrogen) according to manufacturer's instructions. Thus, 18 cell lines were generated: CHO Flp-In full-length SSAO; CHO Flp-In full-length SSAO with C-terminal 6×HIS tag; CHO Flp-In T1 SSAO; CHO Flp-In T1 SSAO with C-terminal 6×HIS tag; CHO Flp-In T2 SSAO; CHO Flp-In T2 SSAO with C-terminal 6×HIS tag; CHO T-Rex Flp-In full-length SSAO; CHO T-Rex Flp-In full-length SSAO with C-terminal 6×HIS tag; CHO T-Rex Flp-In T1 SSAO; CHO T-Rex Flp-In T1 SSAO with C-terminal 6×HIS tag; CHO T-Rex Flp-In T2 SSAO; CHO Flp-In T2 SSAO with C-terminal 6×HIS tag; HEK 293 Flp-In full-length SSAO; HEK 293 Flp-In full-length SSAO with C-terminal 6×HIS tag; HEK 293 Flp-In T1 SSAO; HEK 293 Flp-In T1 SSAO with C-terminal 6×HIS tag; HEK 293 Flp-In T2 SSAO; HEK 293 Flp-In T2 SSAO with C-terminal 6×HIS tag.
Adherent CHO cells were cultured at 37° C., 5% CO2 in media containing Ham's F12, 10% fetal bovine serum, 2 mM L-glutamine, 1% Penicillin/Streptomycin, 300 μM hygromycin B. Adherent HEK 293 cells were cultured at 37° C., 5% CO2 in D-MEM (high glucose), 10% fetal bovine serum, 2 mM L-glutamine, and 200 μM hygromycin B. Stable transformants were identified by loss of zeocin resistance. Once the cells were 80% confluent, SSAO expression was induced by the addition of Tetracycline to 1 μg/mL. Following 18 hours, the cells were harvested using a trypsin treatment of 3 minutes, at room temperature. Cells were washed 3 times in phosphate buffered saline before flash freezing in liquid nitrogen.
For the preparation of cell lysate for activity testing, frozen cell pellets were resuspended in lysate buffer containing 10 mM Tris-HCl (pH 7.2), 150 mM NaCl, 1.5 mM MgCl2, 1% v/v NP-40 and incubated for 15 minutes on ice. Lysate was cleared by centrifugation 800×g for 10 minutes, 4° C. and stored in aliquots at −80° C. until use. Proteins were determined using Pierce Coomassie Protein Reagent, according to manufacturer's instructions.
For each assay run, 1 mL of cell lysate (1.5 mg/mL protein) was mixed with benzylamine to 2000 ng/mL final concentration. At each corresponding time point, […] the incubation mixture was transferred to a microcentrifuge tube (1.7 mL) and mixed with 50 μL of acetonitrile. The tubes were vortex mixed briefly to ensure complete mixing and then centrifuged at 10,000×g for 5 minutes. The supernatant was removed and 50 μL was transferred to an autosampler vial and mixed with 50 μL of water before LC/MS/MS analysis. Benzylamine remaining in the lysate was analyzed with LC/MS/MS method.
LC/MS/MS analysis was performed with a PE Sciex API 3000 mass spectrometer under the following conditions listed below and in Tables 1 and 2: […]

For the compound `NCc1ccccc1` [Benzylamine], the “Benzylamine Remaining (%)” value runs as follows: (CHO Flp-In T-Rex lysate, tag One, 0 min) 100%; (CHO Flp-In T-Rex lysate, tag One, 10 min) 104%; (CHO Flp-In T-Rex lysate, tag One, 2 h) 92%; (CHO Flp-In lysate, tag None, 0 min) 100%; (CHO Flp-In lysate, tag None, 10 min) 109%; (CHO Flp-In lysate, tag None, 2 h) 103%. The “Benzylamine Remaining (%)” value is, setting by setting: (HEK293 lysate, tag None, 0 min) 100%; (HEK293 lysate, tag None, 10 min) 105%; (HEK293 lysate, tag None, 2 h) 102%.
